Data on 6 compounds can be found in US12319675B2 (Artax Biopharma Inc., priority 2018, dated 2025).

The subject of data set [1] is CD3 mediated phosphorylation of ZAP70 in Jurkat cells. Description: CD3 mediated phosphorylation of ZAP70 in Jurkat cells (HTRF). The class given is cell-based. Conditions: Homo sapiens, Jurkat cells stimulated with 20 μg/mL anti-CD3 antibody; for Emax: maximum inhibition, read-out: pZAP70 Inhibition - Maximum Percent Inhibition (% Inhibition); for IC50: read-out: pZAP70 Inhibition IC50.

Data set [2] in a line: Microsomal stability assay, human. In kind it is in vitro ADME. Particulars: human microsomes, read-out: Microsomal Stability (T1/2 min) Human. On the procedure: (§1) Microsomal stability assays were performed using mouse, rat, and human […] according to methods well-known in the art. Microsomal stability results are shown in Table 2 for selected compounds of the invention. The compound numbers correspond to the compound numbers in Table 1. […] “N/A” indicates not assayed.

The nature of data set [3]: Microsomal stability assay, rat. The class given is in vitro ADME. Particulars: rat microsomes, read-out: Microsomal Stability (T1/2 min) Rat. On the procedure: as §1
Data set [4] can be described thus: Microsomal stability assay, mouse. The class given is in vitro ADME. Particulars: mouse microsomes, read-out: Microsomal Stability (T1/2 min) Mouse. On the procedure: as §1
The target of data set [5] is Nck SH3 domain interaction with the proline rich sequence of TCR subunit CD3ε (Homo sapiens, UniProt P16333). Description: Competitive binding, biosensor with Interferometric Optical Detection Method (IODM). Conditions: ratio of 1:1 between Nck SH3 domain and inhibitors; biotinylated CD3ε peptide on sensing surface. On the procedure:
Inhibition of Nck SH3 domain interaction with the proline rich sequence of TCR subunit CD3ε was measured by optical read-out of a biosensor based on the Interferometric Optical Detection Method (IODM), using established methods (WO 2010/026269; WO 2014/020159; Laguna, M. et al., Sensors, 2015, 15(8):19819-29; and Holgado, M. et al., Sensors, 2014, 14(2): 3675-89).
Briefly, a Biophotonic Cell (BICELL) based on Fabry-Perot interferometers was used as the photonic transducer. The BICELL was fabricated using SU8 in cyclopentanone according to known methods (e.g., Laguna, M. F. et al., Sensors, 2014, 14(4): 6695-6700). Cured film was then treated with 95% sulfuric acid for 10 seconds. Streptavidin was then immobilized on the sensing surface in phosphate buffered saline (PBS; pH 7.4) over 20 min at 37° C. followed by blocking of the surface with 5% skin milk in PBS (pH 7.4). Biotinylated CD3ε peptide (SEQ ID NO: 001) in PBS (pH 7.4) was incubated with the streptavidin coated film to biofunctionalize the sensing surface (20 min at 37° C.).
Competitive binding assays were performed to determine the affinity reaction of inhibitors. The screening was carried out using a ratio of 1:1 between Nck SH3 domain and inhibitors. The optical readout of the biosensor was accomplished by a Fourier transform visible-infrared (FT-VIS-IR) spectrometer. Competitive binding results are shown in Table 3 for selected compounds of the invention. The compound numbers correspond to the compound numbers in Table 1. Compounds having a designation of “A” provide an Increased Relative Optical Power (ΔIROP) of less than or equal to thirty percent (≤30%); compounds having a designation of “B” provide a ΔIROP of between thirty and fifty percent (>30% to ≤50%); compounds having a designation of “C” provide an ΔIROP of between fifty and seventy percent (>50% to ≤70%); and compounds having a designation of “D” provide a ΔIROP of greater than seventy percent (>70%).

As usually defined, the IC50 is the concentration that inhibits the measured activity by half.

Consider `CC(C)Oc1ccc2c(c1)C(c1ccc(F)cc1)=C(C(=O)N1CCN(C)CC1)CO2` [Compound I-23], for which the Emax in data set [1] was more than 50%. Moreover, the IC50 in data set [1] lay in the range of 1 to 10 nM. For the same compound, the half-life is 10 to 30 min in data set [2], 10 to 30 min in data set [3] and less than 10 min in data set [4]. The “ΔIROP (Increased Relative Optical Power)” value in data set [5] was “A (an Increased Relative Optical Power (ΔIROP) of less than or equal to thirty percent (≤30%))”.
With `CC(C)c1ccc2c(c1)C(c1ccc(F)cc1)=C(C(=O)N1CCN(C)CC1)CO2` [Compound I-24], the Emax in data set [1] was in the range of 40 to 50%. For the same compound, in data set [1], the IC50 is 1 to 10 nM. The half-life in data set [2], in data set [3] and in data set [4] was less than 10 min throughout. Further, the “ΔIROP (Increased Relative Optical Power)” value in data set [5] was “C (an ΔIROP of between fifty and seventy percent (>50% to ≤70%))”.
In the case of `COc1ccc2c(c1)C(c1ccc(C#N)cc1)=C(C(=O)N1CCN(C)CC1)CO2` [Compound I-30], the Emax in data set [1] was 40 to 50%. Besides, the IC50 in data set [1] was in the range of 1 to 10 nM. Moreover, the results for the half-life in data set [2], in data set [3] and in data set [4] were more than 30 min, 10 to 30 min and less than 10 min, respectively. For the same compound, the “ΔIROP (Increased Relative Optical Power)” value in data set [5] was “C (an ΔIROP of between fifty and seventy percent (>50% to ≤70%))”.
For `O=C(O)CCOc1ccc2c(c1)C(c1ccc(F)cc1)=C(CN1CCCC1)CO2` [Compound I-33, 3-((4-(4-fluorophenyl)-3-(pyrrolidin-1-ylmethyl)-2H-chromen-6-yl)oxy)propanoic Acid], the Emax in data set [1] was more than 50%. The IC50 in data set [1] fell in the range of 1 to 10 nM. In addition, the half-life in data set [2], in data set [3] and in data set [4] was more than 30 min throughout. Also, in data set [5], the “ΔIROP (Increased Relative Optical Power)” value is “A (an Increased Relative Optical Power (ΔIROP) of less than or equal to thirty percent (≤30%))”.
With `O=C(O)CCOc1ccc2c(c1)C(c1ccc(F)cc1)=C(C(=O)N1CCCC1)CO2` [Compound I-40, 3-((4-(4-fluorophenyl)-3-(pyrrolidine-1-carbonyl)-2H-chromen-6-yl)oxy)propanoic acid], the Emax in data set [1] fell in the range of 30 to 40%. In addition, the IC50 in data set [1] lay within 1 to 10 nM. The half-life in data set [2], in data set [3] and in data set [4] was more than 30 min throughout. The “ΔIROP (Increased Relative Optical Power)” value in data set [5] is “D (a ΔIROP of greater than seventy percent (>70%))”.
In the case of `CN1CCN(C(=O)C2=C(c3ccc(F)cc3)c3ccccc3OC2)CC1` [Compound I-44], in data set [1], the Emax was 30 to 40%. The IC50 in data set [1] was 1 to 10 nM. In addition, the half-life in data set [2], in data set [3] and in data set [4] was less than 10 min throughout. The “ΔIROP (Increased Relative Optical Power)” value in data set [5] is recorded as “D (a ΔIROP of greater than seventy percent (>70%))”.
